From US20170334899A1, “AMINO-SUBSTITUTED ISOTHIAZOLES” (Bayer Pharma Aktiengesellschaft, priority 2014, published 2017)

Tested on: human cervical tumor cell line HeLa (ATCC CCL-2)
Experiment: SAC-Formation - Paclitaxel-Induced Assay
Format: cell-based
Conditions: Homo sapiens, HeLa, 24 h, HeLa cells, paclitaxel 0.05 μM, test range 0.005 μM-20 μM, read-out: IC50 [mol/l] SAC-Formation - Paclitaxel-Induced Assay
Method in brief: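 HeLa cells incubated overnight at 37° C, then given paclitaxel (0.05 μM final) plus test compound (0.005–20 μM, 0.5% DMSO) together for 24 h at 37° C. Fixed cells stained for phospho-histone H3 Ser10 (mitotic cells) and Hoechst 33342 (cell count); imaging-derived mitotic index fitted by four-parameter Hill equation.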

IC50 [nM]	Structure (SMILES)
47	CNS(=O)(=O)c1ccc(NC(=O)c2c(C)nsc2Nc2cncc(C(F)(F)F)n2)cc1 [Example 211, 3-methyl-N-[4-(methylsulfamoyl)phenyl]-5-{[6-(trifluoromethyl)pyrazin-2-yl]amino}-1,2-thiazole-4-carboxamide]
11000	Cc1nsc(Nc2cc(C#N)ccn2)c1C(=O)Nc1ccc(NC(=O)OC(C)(C)C)cc1 [Example 177, tert-butyl {4-[({5-[(4-cyanopyridin-2-yl)amino]-3-methyl-1,2-thiazol-4-yl}carbonyl)amino]phenyl}carbamate]
8500	Cc1nsc(Nc2ccc(C#N)cn2)c1C(=O)Nc1ccc(F)c(C(N)=O)c1 [Example 203, N-(3-carbamoyl-4-fluorophenyl)-5-[(5-cyanopyridin-2-yl)amino]-3-methyl-1,2-thiazole-4-carboxamide]
130	Cc1nsc(Nc2cnc3ccccc3n2)c1C(=O)Nc1ccc(F)c(C(N)=O)c1 [Example 202, N-(3-carbamoyl-4-fluorophenyl)-3-methyl-5-(quinoxalin-2-ylamino)-1,2-thiazole-4-carboxamide]
10000	Cc1nsc(Nc2cnc3ccccc3n2)c1C(=O)Nc1ccccc1S(C)(=O)=O [Example 188, 3-methyl-N-[2-(methylsulfonyl)phenyl]-5-(quinoxalin-2-ylamino)-1,2-thiazole-4-carboxamide]
3900	Cc1nsc(Nc2cncc(C(F)(F)F)n2)c1C(=O)Nc1ccc(OC2CCN(C(C)C)CC2)nc1 [Example 218, N-{6-[(1-isopropylpiperidin-4-yl)oxy]pyridin-3-yl}-3-methyl-5-{[6-(trifluoromethyl)pyrazin-2-yl]amino}-1,2-thiazole-4-carboxamide]
20000	CC(=O)Nc1cc(NC(=O)c2c(C)nsc2Nc2cnccn2)ccc1F [Example 205, N-(3-acetamido-4-fluorophenyl)-3-methyl-5-(pyrazin-2-ylamino)-1,2-thiazole-4-carboxamide]
140	Cc1nsc(Nc2cncc(C(F)(F)F)n2)c1C(=O)Nc1ccc(OCCNC(=O)OC(C)(C)C)c(F)c1 [Example 216, tert-butyl [2-(2-fluoro-4-{[(3-methyl-5-{[6-(trifluoromethyl)pyrazin-2-yl]amino}-1,2-thiazol-4-yl)carbonyl]amino}phenoxy)ethyl]carbamate]
7700	CNS(=O)(=O)c1ccc(NC(=O)c2c(C)nsc2Nc2cc(C#N)ccn2)cc1 [Example 210, 5-[(4-cyanopyridin-2-yl)amino]-3-methyl-N-[4-(methylsulfamoyl)phenyl]-1,2-thiazole-4-carboxamide]
110	Cc1nsc(Nc2cncc(C(F)(F)F)n2)c1C(=O)Nc1ccc(OC2CCN(CCF)CC2)c(F)c1 [Example 223, N-(3-fluoro-4-{[1-(2-fluoroethyl)piperidin-4-yl]oxy}phenyl)-3-methyl-5-{[6-(trifluoromethyl)pyrazin-2-yl]amino}-1,2-thiazole-4-carboxamide]
59	Cc1nsc(Nc2cnc3ccccc3n2)c1C(=O)Nc1ccc(OC2CCN(C(=O)OC(C)(C)C)CC2)nc1 [Example 18, tert-Butyl 4-{[5-({[3-methyl-5-(quinoxalin-2-ylamino)-1,2-thiazol-4-yl]carbonyl}-amino)pyridin-2-yl]oxy}piperidine-1-carboxylate]
180	Cc1nsc(Nc2cnc3ccccc3n2)c1C(=O)Nc1ccc(OC2CCN(CC(F)F)CC2)nc1 [Example 20, N-(6-{[1-(2,2-difluoroethyl)piperidin-4-yl]oxy}pyridin-3-yl)-3-methyl-5-(quinoxalin-2-ylamino)-1,2-thiazole-4-carboxamide]
740	Cc1nsc(Nc2cnc3ccccc3n2)c1C(=O)Nc1ccc(OCCC(=O)OC(C)(C)C)nc1 [Example 198, tert-butyl 3-{[5-({[3-methyl-5-(quinoxalin-2-ylamino)-1,2-thiazol-4-yl]carbonyl}amino)pyridin-2-yl]oxy}propanoate]
70	Cc1nsc(Nc2ccc(C#N)cn2)c1C(=O)Nc1cccc(C(=O)OC(C)(C)C)c1 [Example 240, tert-butyl 3-[({5-[(5-cyanopyridin-2-yl)amino]-3-methyl-1,2-thiazol-4-yl}carbonyl)amino]benzoate]
2100	Cc1nsc(Nc2cnc3ccccc3n2)c1C(=O)Nc1ccc(OC2CCNCC2)nc1 [Example 19, 3-Methyl-N-[6-(piperidin-4-yloxy)pyridin-3-yl]-5-(quinoxalin-2-ylamino)-1,2-thiazole-4-carboxamide]
510	Cc1nsc(Nc2cncc(C(F)(F)F)n2)c1C(=O)Nc1ccc(C(=O)OC(C)(C)C)cc1 [Example 193, tert-butyl tert-butyl 4-{[(3-methyl-5-{[6-(trifluoromethyl)pyrazin-2-yl]amino}-1,2-thiazol-4-yl)carbonyl]amino}benzoate]

IC50 [nM]	Structure (SMILES)
3800	Cc1nsc(Nc2cnc3ccccc3n2)c1C(=O)Nc1cccc(NC(=O)C(C)(C)C)c1 [Example 186, N-{3-[(2,2-dimethylpropanoyl)amino]phenyl}-3-methyl-5-(quinoxalin-2-ylamino)-1,2-thiazole-4-carboxamide]
220	Cc1nsc(Nc2cnc3ccccc3n2)c1C(=O)Nc1ccc(C(N)=O)c(F)c1 [Example 201, N-(4-carbamoyl-3-fluorophenyl)-3-methyl-5-(quinoxalin-2-ylamino)-1,2-thiazole-4-carboxamide]
9700	Cc1nsc(Nc2cnc3ccccc3n2)c1C(=O)Nc1ccc(NCC2CCN(C(=O)OC(C)(C)C)CC2)nc1 [Example 238, tert-butyl 4-({[5-({[3-methyl-5-(quinoxalin-2-ylamino)-1,2-thiazol-4-yl]carbonyl}amino)pyridin-2-yl]amino}methyl)piperidine-1-carboxylate]
570	Cc1nsc(Nc2cncc(C(F)(F)F)n2)c1C(=O)Nc1ccc(C(=O)NC2CCN(CC(F)F)CC2)cc1 [Example 225, N-N-(4-{[1-(2,2-difluoroethyl)piperidin-4-yl]carbamoyl}phenyl)-3-methyl-5-{[6-(trifluoromethyl)pyrazin-2-yl]amino}-1,2-thiazole-4-carboxamide]
1600	Cc1nsc(Nc2cncc(C(F)(F)F)n2)c1C(=O)Nc1ccc(C(=O)NCCN2CCCC(F)(F)C2)cc1 [Example 214, N-(4-{[2-(3,3-difluoropiperidin-1-yl)ethyl]carbamoyl}phenyl)-3-methyl-5-{[6-(trifluoromethyl)pyrazin-2-yl]amino}-1,2-thiazole-4-carboxamide]
500	Cc1nsc(Nc2cnc(C(F)(F)F)cn2)c1C(=O)Nc1ccc(OCCN)c(F)c1 [Example 221, 3-N-[4-(2-aminoethoxy)-3-fluorophenyl]-3-methyl-5-{[5-(trifluoromethyl)pyrazin-2-yl]amino}-1,2-thiazole-4-carboxamide]
20000	Cc1nsc(Nc2cnc3ccccc3n2)c1C(=O)Nc1ccc(NCCC(=O)OC(C)(C)C)nc1 [Example 236, tert-butyl N-[5-({[3-methyl-5-(quinoxalin-2-ylamino)-1,2-thiazol-4-yl]carbonyl}amino)pyridin-2-yl]-beta-alaninate]
550	CCN(CC)CCNC(=O)c1cccc(NC(=O)c2c(C)nsc2Nc2cc(C#N)ccn2)c1 [Example 174, 5-[(4-cyanopyridin-2-yl)amino]-N-(3-{[2-(diethylamino)ethyl]carbamoyl}phenyl)-3-methyl-1,2-thiazole-4-carboxamide]
1500	COc1ccc(NC(=O)c2c(C)nsc2Nc2cnc3ccccc3n2)c(CC#N)n1 [Example 235, N-[2-(cyanomethyl)-6-methoxypyridin-3-yl]-3-methyl-5-(quinoxalin-2-ylamino)-1,2-thiazole-4-carboxamide]
37	Cc1nsc(Nc2cncc(C(F)(F)F)n2)c1C(=O)Nc1ccc(OCCNC(=O)OC(C)(C)C)nc1 [Example 191, tert-butyl {2-[(5-{[(3-methyl-5-{[6-(trifluoromethyl)pyrazin-2-yl]amino}-1,2-thiazol-4-yl)carbonyl]amino}pyridin-2-yl)oxy]ethyl}carbamate]
1200	Cc1nsc(Nc2cc(C#N)ccn2)c1C(=O)Nc1ccc(OCCC(=O)OC(C)(C)C)nc1 [Example 200, tert-butyl 3-({5-[({5-[(4-cyanopyridin-2-yl)amino]-3-methyl-1,2-thiazol-4-yl}carbonyl)amino]pyridin-2-yl}oxy)propanoate]
140	CCN(CC)CCNC(=O)c1cccc(NC(=O)c2c(C)nsc2Nc2cnccn2)c1 [Example 247, N-(3-{[2-(diethylamino)ethyl]carbamoyl}phenyl)-3-methyl-5-(pyrazin-2-ylamino)-1,2-thiazole-4-carboxamide]
290	Cc1nsc(Nc2cncc(C(F)(F)F)n2)c1C(=O)Nc1cccc(S(C)(=O)=O)c1 [Example 194, 3-methyl-N-[3-(methylsulfonyl)phenyl]-5-{[6-(trifluoromethyl)pyrazin-2-yl]amino}-1,2-thiazole-4-carboxamide]
4700	Cc1nsc(Nc2cnc3ccccc3n2)c1C(=O)Nc1ccc(NC(=O)C(C)(C)C)cc1 [Example 185, N-{4-[(2,2-dimethylpropanoyl)amino]phenyl}-3-methyl-5-(quinoxalin-2-ylamino)-1,2-thiazole-4-carboxamide]
6500	Cc1cc(C)n(-c2ccccc2NC(=O)c2c(C)nsc2Nc2cnc3ccccc3n2)n1 [Example 243, N-[2-(3,5-dimethyl-1H-pyrazol-1-yl)phenyl]-3-methyl-5-(quinoxalin-2-ylamino)-1,2-thiazole-4-carboxamide]
600	Cc1nsc(Nc2cnc(C(F)(F)F)cn2)c1C(=O)Nc1ccc(OCCN)nc1 [Example 197, N-[6-(2-aminoethoxy)pyridin-3-yl]-3-methyl-5-{[5-(trifluoromethyl)pyrazin-2-yl]amino}-1,2-thiazole-4-carboxamide]
